Laboratory results: ChEMBL document CHEMBL5143711, “Glenthmycins A-M: Macrocyclic Spirotetronate Polyketide Antibacterials from the Australian Pasture Plant-Derived Streptomyces sp. CMB-PB041” (J Nat Prod, 2022)

Tested on: Mycobacterium tuberculosis variant bovis
Experiment: Antibacterial activity against Mycobacterium bovis BCG ATCC 35741 incubated for 16 to 24 hrs by broth microdilution based spectrophotometric analysis
Assay type: functional, organism-based

SMILES	IC50 [µM]
COc1cc(C)c(C(=O)O[C@H]2[C@@H](O)[C@@H](O)[C@H](O[C@H]3CC[C@H](C)[C@@H]4[C@@H]3C=C(C)[C@H]3/C(C)=C/CC/C(C)=C/[C@@H]5C=C(C(=O)O)[C@H](C)C[C@]56OC(=O)C(=C6O)C(=O)[C@@]43C)O[C@@H]2C)c(O)c1	> 30
COc1cc(C)c(C(=O)O[C@H]2[C@@H](O)[C@@H](O)[C@H](O[C@H]3CC[C@H](C)[C@@H]4[C@@H]3C=C(C)[C@H]3/C(C)=C/CC/C(C)=C/[C@]5(C)C=C(C(=O)O)[C@H](C)C[C@]56OC(=O)C(=C6O)C(=O)[C@@]43C)O[C@@H]2C)c(OC)c1	> 30
COc1cc(C)c(C(=O)O[C@H]2[C@@H](O)[C@H](O[C@H]3CC[C@H](C)[C@@H]4[C@@H]3C=C(C)[C@H]3/C(C)=C/CC/C(C)=C/[C@]5(C)C=C(C(=O)O)[C@H](C)C[C@]56OC(=O)C(=C6O)C(=O)[C@@]43C)O[C@H](C)[C@H]2O)c(O)c1	> 30
CC(=O)O[C@H]1CC[C@H](C)[C@@H]2[C@@H]1C=C(C)[C@H]1/C(C)=C/CC/C(C)=C/[C@]3(C)C=C(C)[C@H](C)C[C@]34OC(=O)C(=C4O)C(=O)[C@@]21C	> 30
CC(=O)O[C@H]1CC[C@H](C)[C@@H]2[C@@H]1C=C(C)[C@H]1/C(C)=C/CC/C(C)=C/[C@@H]3C=C(C)[C@H](C)C[C@]34OC(=O)C(=C4O)C(=O)[C@@]21C	> 30
CC1=C[C@@]2(C)/C=C(\C)CC/C=C(\C)[C@@H]3C(C)=C[C@H]4[C@@H]([C@@H](C)CC[C@@H]4O)[C@]3(C)C(=O)C3=C(O)[C@@]2(C[C@H]1C)OC3=O	> 30
COc1cc(C)c(C(=O)N[C@@H]2[C@@H](C)O[C@@H](O[C@H]3CC[C@H](C)[C@@H]4[C@@H]3C=C(C)[C@H]3/C(C)=C/CC/C(C)=C/[C@@H]5C=C(C(=O)O)[C@H](C)C[C@]56OC(=O)C(=C6O)C(=O)[C@@]43C)[C@H](O)[C@]2(C)O)c(O)c1	> 30
COc1cc(C)c(C(=O)O[C@H]2[C@H](O[C@H]3CC[C@H](C)[C@@H]4[C@@H]3C=C(C)[C@H]3/C(C)=C/CC/C(C)=C/[C@]5(C)C=C(C(=O)O)[C@H](C)C[C@]56OC(=O)C(=C6O)C(=O)[C@@]43C)O[C@H](C)[C@@H](O)[C@H]2O)c(O)c1	> 30
COc1cc(C)c(C(=O)N[C@@H]2[C@@H](C)O[C@@H](O[C@H]3CC[C@H](C)[C@@H]4[C@@H]3C=C(C)[C@H]3/C(C)=C/CC/C(C)=C/[C@]5(C)C=C(C(=O)O)[C@H](C)C[C@]56OC(=O)C(=C6O)C(=O)[C@@]43C)[C@H](O)[C@]2(C)O)c(O)c1	> 30
COc1cc(C)c(C(=O)O[C@H]2[C@H](O[C@H]3CC[C@H](C)[C@@H]4[C@@H]3C=C(C)[C@H]3/C(C)=C/CC/C(C)=C/[C@@H]5C=C(C(=O)O)[C@H](C)C[C@]56OC(=O)C(=C6O)C(=O)[C@@]43C)O[C@H](C)[C@@H](O)[C@H]2O)c(O)c1	> 30
COc1cc(C)c(C(=O)O[C@H]2[C@@H](O)[C@@H](O)[C@H](O[C@H]3CC[C@H](C)[C@@H]4[C@@H]3C=C(C)[C@H]3/C(C)=C/CC/C(C)=C/[C@]5(C)C=C(C(=O)O)[C@H](C)C[C@]56OC(=O)C(=C6O)C(=O)[C@@]43C)O[C@@H]2C)c(O)c1	> 30
COc1cc(C)c(C(=O)O[C@H]2[C@@H](O)[C@H](O[C@H]3CC[C@H](C)[C@@H]4[C@@H]3C=C(C)[C@H]3/C(C)=C/CC/C(C)=C/[C@@H]5C=C(C(=O)O)[C@H](C)C[C@]56OC(=O)C(=C6O)C(=O)[C@@]43C)O[C@H](C)[C@H]2O)c(O)c1	> 30
